Data as given in patent US7244731B2, “6-Methylpyridine derivatives, method for preparing thereof and antiviral pharmaceutical composition comprising the same” (B & C Biopharm, priority 2002, dated 2007).

Legend:
[1] = target: T1, HCV RNA polymerase (RNA dependent RNA polymerase, NS5B) (Hepatitis C virus genotype 1b, UniProt P26663); test: Inhibitory effect on activity of recombinant HCV RNA polymerase in vitro; format: biochemical, Hepatitis C virus (HCV-1b type)
T1 construct: NS5B region (1773 bps) was amplified by PCR and cloned into pVLHIS; (His)6; made in house; host or cells: Sf9 insect cells infected with recombinant baculovirus (pVLHIS-NS5B)
Protocol: Test of Inhibitory Effect on Activity of HCV RNA Polymerase (RNA Dependent RNA Polymerase, NS5B) In Vitro
The following in vitro experiments were conducted to find out the effect of inhibition activity of compounds of the present invention against HCV RNA Polymerase (RNA dependent RNA polymerase, NS5B).
HCV cDNA was obtained from the blood of HCV-1b type HCV patient and NS5B region (1773 bps) was amplified by PCR and cloned into pVLHIS, a baculovirus transfer vector, to prepare recombinant transfer vector. The prepared transfer vector and the wild-type AcNPV vector were cotransfected into Sf 9 cell line to yield recombinant baculovirus with the histidine-tagged recombinant vector pVLHIS-NS5B. Sufficiently cultured insect cells were infected with the resulting recombinant baculovirus and cultured in Grace' medium containing 10% FBS for 3–4 days. The culture broth was centrifuged to obtain only the infected cells. The cells were washed three times with PBS and resuspended in binding buffer [50 mM Na-phosphate (pH 8.0), 30 mM NaCl, 10 mM imidazole, 1 mM DTT, 10% glycerol, 1% NP-40], sonicated and the clearized lysate was obtained. Recombinant NS5B was purified by affinity column chromatography using a Ni-NTA His bind resin (Novagen) to produce pure NS5B protein. The (His)6-tagged NS5B was bound to Ni-NTA resin and washed with the binding buffer containing 50 mM imidazole. The bound NS5B was eluted with the binding buffer containing imidazole in a step-gradient manner (100–300 mM). The NS5B protein fractions were dialyzed against buffer [50 mM Tris-HCl, 50 mM NaCl, 1 mM DTT, […], 10% glycerol], followed by at −70° C. in a small aliquot.
The 3′UTR cDNA (220 bp) of HCV was obtained from 1b HCV RNA of the blood of a hepatitis C patient by PCR and cloned into pcDNA3 vector. Linearized DNA fragment containing 3′-UTR was prepared using the restriction enzyme, EcoRI and used as a temperate for in vitro transcription using T7 RNA ploymerase to prepare RNA fragment containing 3′-UTR.
In Vitro inhibitory activity of the compounds of the present invention against recombinant HCV RNA polymerase was measured as follows.
A streptavidin-coated well plate was prepared suitable for the sample to be examined. 25 μl of 2× assay buffer [50 mM Tris-Cl (pH 7.5), 100 mM NaCl, 10 mM MgCl2, 20 mM KCl, 1 mM EDTA, 1 mM DTT] and 10 μl of purified HCV RNA polymerase 200 ng and 3′-UTR template RNA were added to each well. Then, 5 μl of the sample to be examined was added to have final concentrations of 10, 1, 0.1 and 0.01 μg/mL. […] The optical density (OD) was measured using an ELISA reader (Bio-Tek instrument Co.) at 405 nm. The inhibitory effect on the activity of HCV polymerase was calculated by subtracting the OD of the positive control without the sample.

[2] = Cytotoxicity assay (MTT assay); format: cell-based; details: human, HepG2 cells, HepG 2 cell line
Protocol: To find out cytotoxicity of 6-methylpyridine derivative of the chemical formula 1, an in vitro experiment was conducted on the basis of the generally known MTT assay using HepG 2 cell line.

T1 sequence (P26663 2420-3010): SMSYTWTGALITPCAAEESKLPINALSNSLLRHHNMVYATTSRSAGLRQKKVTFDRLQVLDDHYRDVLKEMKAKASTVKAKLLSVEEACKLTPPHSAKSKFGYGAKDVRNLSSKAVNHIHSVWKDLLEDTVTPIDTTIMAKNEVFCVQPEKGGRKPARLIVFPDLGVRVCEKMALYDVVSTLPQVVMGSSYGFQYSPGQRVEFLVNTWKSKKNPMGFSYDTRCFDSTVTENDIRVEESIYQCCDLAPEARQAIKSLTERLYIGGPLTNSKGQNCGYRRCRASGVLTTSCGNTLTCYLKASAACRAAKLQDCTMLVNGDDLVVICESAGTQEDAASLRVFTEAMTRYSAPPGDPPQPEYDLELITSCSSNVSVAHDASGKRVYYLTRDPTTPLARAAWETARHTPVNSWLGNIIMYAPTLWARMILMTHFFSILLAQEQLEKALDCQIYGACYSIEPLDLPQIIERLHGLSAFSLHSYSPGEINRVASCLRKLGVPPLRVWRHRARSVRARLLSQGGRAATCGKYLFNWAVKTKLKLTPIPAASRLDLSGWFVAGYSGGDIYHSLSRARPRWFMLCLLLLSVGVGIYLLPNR

Cc1ccc(C(=O)O)c(Nc2ccc(N3CCOCC3)cc2)n1 [Example 1, 6-methyl-2-[4-(4-morpholino)anilino] nicotinic acid]
Inhibition of activity of HCV RNA polymerase (%) ([1]; 0.01 μg/ml): 46%
Inhibition of activity of HCV RNA polymerase (%) ([1]; 0.1 μg/ml): 65%
Inhibition of activity of HCV RNA polymerase (%) ([1]; 1 μg/ml): 82%
Inhibition of activity of HCV RNA polymerase (%) ([1]; 10 μg/ml): 99%
CC50 [2]: > 100 µg/mL
